Measured values taken from patent US8058295B2, “Cystic fibrosis transmembrane conductance regulator protein inhibitors and uses thereof” (The Regents of the University of California, priority 2002, dated 2011).
Entries after “also recorded” stand apart in the source; their conditions may differ.

Experiments:
[1] = target: T1, ATP-sensitive K^+ channels (Rattus norvegicus, UniProt Q09429); test: Membrane potential recording in INS-1 pancreatic β cells (K-ATP channels); assay type: cell-based
T1 construct: endogenous in cells; host or cells: INS-1 rat pancreatic β cell line

[2] = system: cholera toxin-induced intestinal fluid secretion; parameters: species or system mice; settings: mouse, in vivo, ip
urea transporter (UT-B) = target: T2, urea transporter (UT-B) (Homo sapiens, UniProt Q13336); test: Urea transporter block; settings: 5 μM
T2 sequence (Q13336 1-389): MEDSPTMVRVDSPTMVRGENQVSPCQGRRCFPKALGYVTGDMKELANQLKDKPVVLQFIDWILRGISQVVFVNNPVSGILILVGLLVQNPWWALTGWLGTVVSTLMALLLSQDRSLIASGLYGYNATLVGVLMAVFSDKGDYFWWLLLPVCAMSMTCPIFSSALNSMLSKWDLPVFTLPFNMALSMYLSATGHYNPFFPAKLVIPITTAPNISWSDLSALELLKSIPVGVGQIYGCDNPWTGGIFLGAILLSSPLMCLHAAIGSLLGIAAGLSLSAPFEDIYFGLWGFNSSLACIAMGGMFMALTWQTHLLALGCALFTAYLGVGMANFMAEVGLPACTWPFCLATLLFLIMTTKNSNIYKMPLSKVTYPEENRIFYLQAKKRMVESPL

CFTR Cl^− channel = target: T3, CFTR Cl^− channel (Rattus norvegicus, UniProt P34158); test: Short-circuit current in isolated rat colonic mucosa; settings: 5 μM to the mucosal solution alone, after amiloride and forskolin 20 μM
T3 construct: from tissue; host or cells: rat colon mucosa

MDR-1 = target: T4, MDR-1 (Homo sapiens, UniProt P08183); test: MDR-1 activity, ^3H-vincristine accumulation in 9HTEo-/Dx cells; assay type: cell-based; settings: 5 μM
T4 construct: endogenous in cells; host or cells: 9HTEo-/Dx cells

wildtype CFTR = wildtype CFTR (Homo sapiens, UniProt P13569); test: Short-circuit current in primary culture of human bronchial epithelial cells; assay type: cell-based; parameters: cells that natively express wildtype CFTR; endogenous in cells; host or cells: primary human bronchial epithelial cells
Animal toxicity in mice = assay type: in vivo
[3] = intraperitoneal 1000 μg/kg daily for 7 days

T1 sequence (Q09429 whole entry): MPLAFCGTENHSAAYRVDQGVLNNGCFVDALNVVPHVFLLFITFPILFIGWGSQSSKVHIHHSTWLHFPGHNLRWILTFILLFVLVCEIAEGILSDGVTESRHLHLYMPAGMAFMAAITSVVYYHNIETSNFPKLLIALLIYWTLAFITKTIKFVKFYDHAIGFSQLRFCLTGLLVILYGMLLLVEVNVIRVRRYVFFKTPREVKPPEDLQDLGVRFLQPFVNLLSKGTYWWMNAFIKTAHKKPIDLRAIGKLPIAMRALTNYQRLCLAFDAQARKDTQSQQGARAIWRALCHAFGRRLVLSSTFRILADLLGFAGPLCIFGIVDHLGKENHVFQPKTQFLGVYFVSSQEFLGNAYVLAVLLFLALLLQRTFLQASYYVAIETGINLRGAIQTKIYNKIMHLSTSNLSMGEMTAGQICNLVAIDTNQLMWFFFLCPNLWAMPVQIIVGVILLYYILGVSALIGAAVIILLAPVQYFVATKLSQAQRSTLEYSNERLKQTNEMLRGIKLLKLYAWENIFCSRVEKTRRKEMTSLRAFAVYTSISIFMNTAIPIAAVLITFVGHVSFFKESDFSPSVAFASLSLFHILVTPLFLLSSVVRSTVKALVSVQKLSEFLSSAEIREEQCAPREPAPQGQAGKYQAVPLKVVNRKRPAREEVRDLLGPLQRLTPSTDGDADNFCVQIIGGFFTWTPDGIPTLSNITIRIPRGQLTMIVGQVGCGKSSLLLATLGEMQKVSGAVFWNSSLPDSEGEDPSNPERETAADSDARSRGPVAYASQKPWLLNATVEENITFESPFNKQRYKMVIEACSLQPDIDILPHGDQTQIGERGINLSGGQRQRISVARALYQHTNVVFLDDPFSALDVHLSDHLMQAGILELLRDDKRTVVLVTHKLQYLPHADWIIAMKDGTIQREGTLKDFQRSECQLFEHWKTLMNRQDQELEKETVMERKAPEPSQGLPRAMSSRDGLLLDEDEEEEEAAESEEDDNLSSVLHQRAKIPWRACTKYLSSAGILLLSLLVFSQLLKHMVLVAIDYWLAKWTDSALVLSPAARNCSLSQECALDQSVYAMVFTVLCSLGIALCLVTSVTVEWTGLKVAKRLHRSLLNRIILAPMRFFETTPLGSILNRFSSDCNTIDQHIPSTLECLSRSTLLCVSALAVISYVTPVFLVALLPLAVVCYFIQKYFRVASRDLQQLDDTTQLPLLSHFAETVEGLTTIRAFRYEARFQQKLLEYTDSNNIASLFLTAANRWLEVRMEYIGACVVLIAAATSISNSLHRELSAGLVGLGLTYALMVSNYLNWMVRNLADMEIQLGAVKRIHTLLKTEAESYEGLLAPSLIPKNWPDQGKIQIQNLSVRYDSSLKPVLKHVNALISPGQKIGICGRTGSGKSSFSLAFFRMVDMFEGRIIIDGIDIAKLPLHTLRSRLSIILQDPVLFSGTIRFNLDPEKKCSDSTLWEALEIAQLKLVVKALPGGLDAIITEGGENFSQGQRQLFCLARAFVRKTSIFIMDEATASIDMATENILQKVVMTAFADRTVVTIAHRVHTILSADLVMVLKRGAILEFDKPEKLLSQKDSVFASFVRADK
T1 sequence (P70673 whole entry partner): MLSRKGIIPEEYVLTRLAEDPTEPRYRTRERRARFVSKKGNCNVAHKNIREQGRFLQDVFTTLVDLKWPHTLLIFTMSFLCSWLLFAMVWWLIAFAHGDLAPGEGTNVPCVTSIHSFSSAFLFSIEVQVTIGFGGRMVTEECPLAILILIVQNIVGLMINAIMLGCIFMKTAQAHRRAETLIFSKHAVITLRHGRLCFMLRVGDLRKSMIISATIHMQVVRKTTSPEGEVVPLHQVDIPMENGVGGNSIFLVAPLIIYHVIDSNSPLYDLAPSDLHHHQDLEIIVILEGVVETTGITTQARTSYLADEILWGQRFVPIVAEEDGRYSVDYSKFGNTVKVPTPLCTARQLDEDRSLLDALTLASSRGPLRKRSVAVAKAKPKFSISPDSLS
wildtype CFTR, sequence (P13569 whole entry): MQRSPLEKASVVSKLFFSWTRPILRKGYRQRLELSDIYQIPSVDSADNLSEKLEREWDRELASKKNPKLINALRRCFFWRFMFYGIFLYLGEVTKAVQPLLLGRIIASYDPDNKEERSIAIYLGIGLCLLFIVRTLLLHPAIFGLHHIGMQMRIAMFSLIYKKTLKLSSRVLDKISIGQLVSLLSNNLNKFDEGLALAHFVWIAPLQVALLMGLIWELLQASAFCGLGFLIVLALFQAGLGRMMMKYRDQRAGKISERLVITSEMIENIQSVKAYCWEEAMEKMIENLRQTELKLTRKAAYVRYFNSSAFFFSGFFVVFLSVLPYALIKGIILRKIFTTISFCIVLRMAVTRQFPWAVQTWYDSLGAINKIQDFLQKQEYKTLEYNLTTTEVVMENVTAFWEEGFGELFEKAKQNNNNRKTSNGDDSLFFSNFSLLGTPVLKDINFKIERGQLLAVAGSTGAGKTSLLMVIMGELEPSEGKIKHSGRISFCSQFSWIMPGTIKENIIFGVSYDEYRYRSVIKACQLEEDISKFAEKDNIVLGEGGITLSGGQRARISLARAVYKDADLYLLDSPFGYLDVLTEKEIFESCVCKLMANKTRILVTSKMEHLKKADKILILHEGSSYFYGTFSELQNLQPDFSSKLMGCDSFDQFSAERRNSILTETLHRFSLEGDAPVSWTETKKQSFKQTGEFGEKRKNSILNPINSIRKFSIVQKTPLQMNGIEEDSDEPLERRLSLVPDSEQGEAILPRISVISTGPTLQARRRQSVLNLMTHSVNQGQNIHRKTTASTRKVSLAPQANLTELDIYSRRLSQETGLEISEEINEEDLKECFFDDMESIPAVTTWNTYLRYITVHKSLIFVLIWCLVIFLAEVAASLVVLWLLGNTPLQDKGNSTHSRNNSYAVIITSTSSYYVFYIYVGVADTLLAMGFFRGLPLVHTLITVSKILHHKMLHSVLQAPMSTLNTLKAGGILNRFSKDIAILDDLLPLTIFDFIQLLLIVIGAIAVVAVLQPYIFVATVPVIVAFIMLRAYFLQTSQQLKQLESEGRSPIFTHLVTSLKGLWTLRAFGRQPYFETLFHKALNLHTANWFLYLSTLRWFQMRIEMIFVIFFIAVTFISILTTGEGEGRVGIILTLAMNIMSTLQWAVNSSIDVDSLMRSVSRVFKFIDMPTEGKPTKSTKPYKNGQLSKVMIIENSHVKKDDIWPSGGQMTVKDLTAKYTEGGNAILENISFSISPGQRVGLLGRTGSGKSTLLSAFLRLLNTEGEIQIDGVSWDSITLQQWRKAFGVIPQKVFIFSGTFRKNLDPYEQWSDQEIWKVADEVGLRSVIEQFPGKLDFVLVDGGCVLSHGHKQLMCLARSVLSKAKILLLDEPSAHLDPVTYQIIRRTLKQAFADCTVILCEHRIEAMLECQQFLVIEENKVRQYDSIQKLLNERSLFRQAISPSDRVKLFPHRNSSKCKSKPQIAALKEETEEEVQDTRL
T4 sequence (P08183 whole entry): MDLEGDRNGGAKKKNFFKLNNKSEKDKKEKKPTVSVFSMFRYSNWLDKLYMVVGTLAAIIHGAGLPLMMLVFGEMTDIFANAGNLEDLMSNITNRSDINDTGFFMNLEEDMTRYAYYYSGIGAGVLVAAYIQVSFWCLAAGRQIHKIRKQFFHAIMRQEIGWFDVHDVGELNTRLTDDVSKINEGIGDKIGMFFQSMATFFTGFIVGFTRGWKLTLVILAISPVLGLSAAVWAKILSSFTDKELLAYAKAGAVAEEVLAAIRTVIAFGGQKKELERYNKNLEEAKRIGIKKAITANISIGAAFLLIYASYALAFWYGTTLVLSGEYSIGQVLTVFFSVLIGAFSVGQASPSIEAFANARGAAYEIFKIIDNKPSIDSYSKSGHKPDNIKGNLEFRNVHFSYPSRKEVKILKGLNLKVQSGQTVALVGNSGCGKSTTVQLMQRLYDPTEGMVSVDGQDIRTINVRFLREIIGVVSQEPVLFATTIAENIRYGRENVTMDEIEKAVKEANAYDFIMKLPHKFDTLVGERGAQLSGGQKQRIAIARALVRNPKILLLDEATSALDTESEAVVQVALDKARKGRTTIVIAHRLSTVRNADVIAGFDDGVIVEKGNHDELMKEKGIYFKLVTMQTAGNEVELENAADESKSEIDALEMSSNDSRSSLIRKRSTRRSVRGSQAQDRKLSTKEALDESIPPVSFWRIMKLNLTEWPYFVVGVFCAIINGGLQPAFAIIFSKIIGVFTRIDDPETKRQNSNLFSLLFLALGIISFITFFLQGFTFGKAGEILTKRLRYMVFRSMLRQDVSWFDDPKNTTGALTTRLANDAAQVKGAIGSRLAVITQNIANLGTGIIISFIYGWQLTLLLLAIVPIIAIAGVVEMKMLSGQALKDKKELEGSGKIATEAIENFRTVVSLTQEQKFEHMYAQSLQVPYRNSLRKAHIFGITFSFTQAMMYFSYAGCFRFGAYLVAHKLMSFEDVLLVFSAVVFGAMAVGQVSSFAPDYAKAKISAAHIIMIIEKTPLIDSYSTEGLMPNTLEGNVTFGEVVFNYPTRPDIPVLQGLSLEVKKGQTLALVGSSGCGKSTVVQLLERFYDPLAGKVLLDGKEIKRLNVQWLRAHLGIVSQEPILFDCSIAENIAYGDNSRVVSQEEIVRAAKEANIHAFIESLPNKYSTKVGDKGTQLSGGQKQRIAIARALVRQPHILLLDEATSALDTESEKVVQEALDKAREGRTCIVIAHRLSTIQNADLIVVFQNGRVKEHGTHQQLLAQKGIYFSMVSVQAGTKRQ

O=C(O)c1ccc(/C=C2\SC(=S)N(c3cccc(C(F)(F)F)c3)C2=O)cc1 [CFTRinh-172, 3-[(3-trifluoromethyl)phenyl]-5-[(4-carboxyphenyl)methylene]-2-thioxo-4-thiazolidinone]
effect on membrane potential ([1]; 5 μM): small hyperpolarization | effect on membrane potential ([1]; 2 and 5 μM): did not depolarize membrane potential | fluid accumulation in cholera toxin-treated loops [2]: effectively prevented fluid accumulation; also recorded: significantly reduced fluid secretion to that in saline control loops | inhibition of fluid accumulation in cholera toxin-injected loops [2]: ~90% | inhibition of luminal fluid accumulation [2]: significant inhibition of luminal fluid accumulation; also recorded: much less inhibition | t1/2 for persistence of inhibition [2]: 9 to 10 h | block of urea transporter (UT-B) (urea transporter (UT-B)): did not block | reduction of short-circuit current (CFTR Cl^− channel): > 80% | vincristine accumulation (MDR-1): did not affect vincristine accumulation | inhibition of short-circuit current (wildtype CFTR; added from the basolateral side): inhibited short-circuit current | inhibition of short-circuit current (wildtype CFTR; apical side, amiloride, after CPT-cAMP activation): inhibited short-circuit current strongly | food and water intake (Animal toxicity in mice; [3]): not diminished | overt toxicity (Animal toxicity in mice; [3]): did not cause overt toxicity | serum electrolyte concentrations, glucose, liver function indices, serum creatinine, amylase and hematocrit (Animal toxicity in mice; [3]): not changed | overt toxicity (Animal toxicity in mice; single systemic dose 10 mg/kg): did not cause overt toxicity
